Test results taken from patent US11639506B2, “Recombinant yeast having increased tolerance to ionic liquids and methods of use” (Wisconsin Alumni Research Foundation, priority 2015, dated 2023).
Where “and” joins values, the source holds several entries; their conditions need not be identical. Identical values can stand only once.

How the values were obtained:
S. cerevisiae = experiment: Dose curve for chemical genomic profiling concentration; type: cell-based; conditions: 88 μg/ml, YP-galactose media, 24 hours
Experimental: Chemical genomic analysis: Chemical genomic analysis of poacic acid was performed as described as described previously (Fung et al., 2013; Parsons et al., 2006). The tested yeast deletion collection had 4000 strains using the genetic background described in Andrusiak (2012). The optimal inhibitory concentration of poacic acid for chemical genomic profiling (70-80% growth versus solvent control in YP-galactose media after 24 hours of growth) was determined using an 8 point dose curve. A concentration of 88 μg/ml inhibited growth within this range. 200 μl cultures of the pooled, deletion collection of S. cerevisiae deletion mutants were grown with 88 μg/ml poacic acid or a DMSO control in triplicate for 48 hours at 30° C. Genomic DNA was extracted using the Epicentre MasterPure™ Yeast DNA purification kit. Mutant-specific molecular barcodes were amplified with specially designed multiplex primers (Smith et al., 2009). The barcodes were sequenced using an Illumina MiSeq. Three replicates of each condition (poacic acid vs. DMSO) were sequenced. One DMSO control was lost due to poor sequencing reads. The barcode counts for each yeast deletion mutant in the presence of poacic acid were normalized against the DMSO control conditions to define sensitivity or resistance of individual strains. […]

Y133 ptk2Δ [1] = type: cell-based, S. cerevisiae; conditions: relative to Y133, p<0.01
Experimental: Compounds, initial screening, and IC50 determination: Compounds tested were purchased from Sigma-Aldrich. […] Plates were read on a TECAN M1000 over a 48 hour growth period. […] When presented, IC50 values for growth inhibition were calculated from triplicate 8 point dose curves and SigmaPlot 12.0. When presented, error bars are mean±standard error (S.E.) of at least 3 replicates.

Y133 ptk2Δ [2] = type: cell-based, S. cerevisiae
Description: We deleted PTK2 in our xylose fermenting yeast GLBRCY133 (Parreiras et al.,2014).

[3] = tested on: S. cerevisiae deletion mutants; experiment: Chemical genomic profiling of pooled deletion mutants; type: cell-based; conditions: listed as EMIM-CI
[4] = tested on: PTK2 deletion mutant in a lab strain background; experiment: Growth inhibition IC50, PTK2 deletion mutant in lab strain; type: cell-based, S. cerevisiae; conditions: deletion mutant of PTK2 in the lab strain
Experimental: Compounds, initial screening, and IC50 determination: Compounds tested were purchased from Sigma-Aldrich. Cells of S. cerevisiae (MATαpdr1Δ::natMXpdr3Δ::KI.URA3 snq2Δ::KI.LEU2 can1Δ::STE2pr-Sp_his5 lyp1Δhis3Δ1 leu2Δ0 ura3Δ0 met15Δ0), referred to as control strain, were grown in 200 μl cultures at 30° C. in YPD, with a drug or DMSO control. Plates were read on a TECAN M1000 over a 48 hour growth period. The specific growth rate was calculated using GCAT analysis software (available at cat3-pub.glbrc.org on the World Wide Web) (Sato et al., 2013). When presented, IC50 values for growth inhibition were calculated from triplicate 8 point dose curves and SigmaPlot 12.0. When presented, error bars are mean±standard error (S.E.) of at least 3 replicates.

[5] = tested on: S. cerevisiae deletion mutants; experiment: Chemical genomic profiling of pooled deletion mutants; type: cell-based
Experimental: FIGS. 1A-B depict chemical genomic profiling of ionic liquids. A genome-wide set of deletion mutants were challenged with a specific compound and grown as a pool for several generations.
Chemical genomic analysis: Chemical genomic analysis of poacic acid was performed as described as described previously (Fung et al., 2013; Parsons et al., 2006). The tested yeast deletion collection had 4000 strains using the genetic background described in Andrusiak (2012). The optimal inhibitory concentration of poacic acid for chemical genomic profiling (70-80% growth versus solvent control in YP-galactose media after 24 hours of growth) was determined using an 8 point dose curve. A concentration of 88 μg/ml inhibited growth within this range. 200 μl cultures of the pooled, deletion collection of S. cerevisiae deletion mutants were grown with 88 μg/ml poacic acid or a DMSO control in triplicate for 48 hours at 30° C. Genomic DNA was extracted using the Epicentre MasterPure™ Yeast DNA purification kit. Mutant-specific molecular barcodes were amplified with specially designed multiplex primers (Smith et al., 2009). The barcodes were sequenced using an Illumina MiSeq. Three replicates of each condition (poacic acid vs. DMSO) were sequenced. One DMSO control was lost due to poor sequencing reads. The barcode counts for each yeast deletion mutant in the presence of poacic acid were normalized against the DMSO control conditions to define sensitivity or resistance of individual strains. To determine a p-value for each top sensitive and resistant mutant, we used the EdgeR package (Robinson et al., 2014, 2010). A Bonferroni-corrected hypergeometric distribution test was used to search for significant enrichment of GO terms among the top 10 sensitive and resistant deletion mutants (Boyle et al., 2004). To understand the pathways that were most affected by poacic acid we developed a protein complex/pathway score based on the summation of the z-scores for each complex/pathway (Pathway z-score). Correlation of the chemical genomic profile of poacic acid with the yeast genetic interaction network to was done as described in Costanzo et al. (2010).

yeast mitochondria = experiment: SYTO 16 staining of active mitochondria (microscopy); type: cell-based; conditions: SYTO 16 stain
Description: We determined that ionic liquids were more toxic to cells grown on glycerol compared to glucose (FIG. 3A). Using microscopy, we explored the effect of ionic liquids on mitochondria. […] Untreated cells had normal mitochondrial morphology, and at higher doses, mitochondria structures in cells disappeared indicating a loss of functional mitochondria. Finally, we used FACS analysis with the stain 3,3-Dioctadecyloxacarbocyanine perchlorate (“DiO”), which has differential fluorescence depending on mitochondrial membrane potential. In the presence of ionic liquids, we observed a fluorescence shift of DiO, indicating reduced mitochondrial membrane potential (FIGS. 3C-D). Valinomycin was used as a positive control. Hydroxyurea and benomyl were included as negative control agents that causes cell death through a mechanism unrelated to the mitochondria.

[6] = tested on: yeast overexpressing PMA1 or PTK2; experiment: Tolerance of PMA1 / PTK2 overexpression strains; type: cell-based
[7] = tested on: xylose fermenting yeast GLBRCY133; experiment: Growth inhibition IC50, xylose fermenting yeast Y133; type: cell-based, S. cerevisiae; conditions: Y133 and Y133 ptk2Δ

## poacic acid
S. cerevisiae
  growth versus solvent control: 70-80%

## CC(=O)[O-].CCn1cc[n+](C)c1 [EMIM-Ac, 1-ethyl-3-methylimidazolium acetate]
Y133 ptk2Δ [1]
  tolerance conferred by deletion of PTK2 in Y133: significantly greater tolerance

## CCCCn1cc[n+](C)c1.[Cl-] [BMIM-Cl, 1-butyl-3-methylimidazolium chloride]
Y133 ptk2Δ [1]
  tolerance conferred by deletion of PTK2 in Y133: significantly greater tolerance
Y133 ptk2Δ [2]; 1% BMIM-Cl, aerobic and anaerobic conditions
  tolerance and fermentative capacity of PTK2 deletion: greater tolerance and has greater fermentative capacity

## CCn1cc[n+](C)c1.[Cl-] [EMIM-Cl, 1-ethyl-3-methylimidazolium chloride]
[3]; HMI1 deletion mutant
  Fold Change: 0.1939
[3]; LYS5 deletion mutant
  Fold Change: 0.1821
[3]; MCT1 deletion mutant
  Fold Change: 0.1576
[3]; SHE9 deletion mutant
  Fold Change: 0.2014
[4]
  resistant to concentration: over 5%
[5]; APM3 deletion mutant
  Fold Change: 0.5222
[5]; ARG2 deletion mutant, listed as EMIM-CI
  Fold Change: 0.1706
[5]; ARX1 deletion mutant
  Fold Change: 1.688
[5]; AVT3 deletion mutant
  Fold Change: 1.575
[5]; AVT5 deletion mutant
  Fold Change: 1.933
[5]; BAP2 deletion mutant
  Fold Change: 1.689
[5]; BNI4 deletion mutant
  Fold Change: 1.665
[5]; BUD8 deletion mutant
  Fold Change: 0.6034
[5]; CAT5 deletion mutant
  Fold Change: 0.4405
[5]; CTF4 deletion mutant
  Fold Change: 2.67
[5]; DAN1 deletion mutant
  Fold Change: 0.5786
[5]; DBF2 deletion mutant
  Fold Change: 1.927
[5]; DBP3 deletion mutant
  Fold Change: 1.709
[5]; DEP1 deletion mutant
  Fold Change: 2.106
[5]; DIA2 deletion mutant
  Fold Change: 2.886
[5]; DOA1 deletion mutant
  Fold Change: 1.661
[5]; DPB3 deletion mutant
  Fold Change: 1.946
[5]; ERF2 deletion mutant
  Fold Change: 1.477
[5]; GAL1 deletion mutant
  Fold Change: 0.1962
[5]; GAL1 deletion mutant, listed as EMIM-CI
  Fold Change: 0.1962
[5]; GRX2 deletion mutant
  Fold Change: 0.3394
[5]; HIR2 deletion mutant
  Fold Change: 0.4587
[5]; HMI1 deletion mutant
  Fold Change: 0.1939
[5]; IRA2 deletion mutant
  Fold Change: 0.4076
[5]; IST3 deletion mutant
  Fold Change: 1.899
[5]; LIA1 deletion mutant
  Fold Change: 1.621
[5]; LYS2 deletion mutant
  Fold Change: 0.4622
[5]; LYS5 deletion mutant
  Fold Change: 0.1821
[5]; LYS14 deletion mutant
  Fold Change: 0.3984
[5]; MCT1 deletion mutant
  Fold Change: 0.1576
[5]; MEI4 deletion mutant
  Fold Change: 1.592
[5]; MF(ALPHA)2 deletion mutant
  Fold Change: 0.6154
[5]; NMD2 deletion mutant
  Fold Change: 1.614
[5]; OLA1 deletion mutant
  Fold Change: 1.645
[5]; PEX32 deletion mutant
  Fold Change: 2.103
[5]; PMT1 deletion mutant
  Fold Change: 1.712
[5]; PPM1 deletion mutant
  Fold Change: 0.3444
[5]; PTK2 deletion mutant
  Fold Change: 12
[5]; PUF4 deletion mutant
  Fold Change: 0.1863
[5]; PUF4 deletion mutant, listed as EMIM-CI
  Fold Change: 0.1863
[5]; PUF6 deletion mutant
  Fold Change: 1.748
[5]; QCR2 deletion mutant, listed as EMIM-CI
  Fold Change: 0.195
[5]; RCR1 deletion mutant
  Fold Change: 0.4508
[5]; REI1 deletion mutant
  Fold Change: 2.168
[5]; RHO2 deletion mutant
  Fold Change: 1.785
[5]; RIM1 deletion mutant, listed as EMIM-CI
  Fold Change: 0.1974
[5]; RNP1 deletion mutant
  Fold Change: 1.495
[5]; ROM2 deletion mutant
  Fold Change: 2.198
[5]; RPL11B deletion mutant
  Fold Change: 1.725
[5]; RPL19A deletion mutant
  Fold Change: 1.875
[5]; RPL19B deletion mutant
  Fold Change: 1.56
[5]; RPL24B deletion mutant
  Fold Change: 2.086
[5]; RPS10A deletion mutant
  Fold Change: 2.351
[5]; RPS18B deletion mutant
  Fold Change: 1.743
[5]; RPS28B deletion mutant
  Fold Change: 2.088
[5]; RRI1 deletion mutant
  Fold Change: 0.6151
[5]; SAP155 deletion mutant
  Fold Change: 1.704
[5]; SAP185 deletion mutant
  Fold Change: 0.649
[5]; SAY1 deletion mutant
  Fold Change: 1.592
[5]; SHE9 deletion mutant
  Fold Change: 0.2014
[5]; SIN3 deletion mutant
  Fold Change: 2.02
[5]; SKY1 deletion mutant
  Fold Change: 4.5 and 4.547
[5]; SPS4 deletion mutant
  Fold Change: 0.5658
[5]; SSK2 deletion mutant
  Fold Change: 1.579
[5]; SUR4 deletion mutant
  Fold Change: 2.535
[5]; SVL3 deletion mutant
  Fold Change: 0.3847
[5]; SWI6 deletion mutant
  Fold Change: 1.902
[5]; TOP1 deletion mutant
  Fold Change: 1.759
[5]; TRP2 deletion mutant
  Fold Change: 1.685
[5]; TSR2 deletion mutant
  Fold Change: 1.94
[5]; TYE7 deletion mutant
  Fold Change: 0.4859
[5]; UBC4 deletion mutant
  Fold Change: 1.541
[5]; UBP14 deletion mutant
  Fold Change: 1.534
[5]; UPF3 deletion mutant
  Fold Change: 1.61
[5]; VPS38 deletion mutant
  Fold Change: 1.666
[5]; YBR090C deletion mutant
  Fold Change: 0.5882
[5]; YDL118W deletion mutant
  Fold Change: 1.522
[5]; YDL172C deletion mutant
  Fold Change: 1.636
[5]; YGR237C deletion mutant
  Fold Change: 0.5496
[5]; YHB1 deletion mutant
  Fold Change: 0.5611
[5]; YIH1 deletion mutant
  Fold Change: 1.762
[5]; YIL141W deletion mutant
  Fold Change: 1.524
[5]; YIR044C deletion mutant
  Fold Change: 0.5723
[5]; YLR194C deletion mutant
  Fold Change: 0.5909
[5]; YLR279W deletion mutant
  Fold Change: 0.5779
[5]; YLR434C deletion mutant
  Fold Change: 1.5
[5]; YMR193C-A deletion mutant
  Fold Change: 1.867
[5]; YOL162W deletion mutant
  Fold Change: 0.5537
[5]; YPL205C deletion mutant
  Fold Change: 1.523
[5]; YPR130C deletion mutant
  Fold Change: 0.5263
[5]; YPS7 deletion mutant
  Fold Change: 1.508
[5]; YPT7 deletion mutant
  Fold Change: 0.1584
[5]; YPT7 deletion mutant, listed as EMIM-CI
  Fold Change: 0.1584
[5]; YSP2 deletion mutant
  Fold Change: 1.618
[5]; ZDS1 deletion mutant
  Fold Change: 0.6026
Yeast mitochondria
  effect on staining of active mitochondria: dose-dependent effect
Y133 ptk2Δ [1]
  tolerance conferred by deletion of PTK2 in Y133: significantly greater tolerance
Y133 ptk2Δ [2]; in the presence of 1% EMIM-Cl, versus Y133
  sugar conversion (glucose and xylose) and ethanol production of PTK2 mutant: significantly improved
[6]; PMA1 overexpression, p<0.01
  EMIM-Cl tolerance on increased expression of PMA1: significant decrease
[6]; PTK2 overexpression
  EMIM-Cl tolerance on overexpression of PTK2: reduced EMIM-Cl tolerance, but not significantly
[7]
  effects on growth at pH 6.5 versus pH 5.0: much greater
